Values of other authors, collected in patent US10882883B2, “Derivatives of amphotericin B” (Sfunga Therapeutics, Inc., priority 2015, dated 2021).

Columns and labels:
[1] = Wilcock et al., J Am Chem Soc 135: 8488-91 (2013)
[2] = Wilcock et al., J Am Chem Soc 135: 8488-91 (2013); remark: listed apart in the source
yeast = settings: in vitro studies; WO 2014/165676

CC1C=CC=CC=CC=CC=CC=CC=CC(OC2CC(N)C(O)C(C)O2)CC2OC(O)(CC(O)CC(O)C(O)CCC(O)CC(O)CC(=O)OC(C)C(C)C1O)CC(O)C2C(=O)O (stereo not drawn) [C2′deOAmB]
binding to cholesterol [1]: no binding to cholesterol
ergosterol-binding ability [2]: retains ergosterol-binding ability
toxicity to yeast (yeast): toxic to yeast
